Assay results taken from BigSolDB 2.1.

Nc1ncnc2c1ncn2[C@@H]1O[C@H](CO)[C@@H](O)[C@H]1O
solubility (mole fraction)
Conditions	278.15 K	283.15 K	288.15 K	293.15 K	298.15 K	303.15 K	308.15 K	313.15 K	318.15 K	323.15 K
in DMF	0.00414	0.00502	0.00594	0.00687	0.00784	0.00906	0.00993	0.0108	0.012	0.0127
in DMSO	–	–	–	0.00262	0.00299	0.00348	0.00394	0.00442	0.00488	0.00537
in NMP	0.0321	0.035	0.0376	0.0407	0.0437	0.0467	0.0496	0.0522	0.0554	0.0582
in propylene glycol	0.00352	0.00375	0.004	0.00431	0.00464	0.00497	0.00537	0.0058	0.00623	0.00665
in water	0.00019	0.000237	0.00029	0.000353	0.000426	0.000516	0.000611	0.000731	0.000876	0.00105
